Literature values in patent US20260256672A1, “COMPOSITION COMPRISING SKIN CARE ACTIVE INGREDIENT OR CELLULOSE COMPOUND” (L'OREAL, priority 2022, published 2026).

Details: base-ten logarithm of apparent octan-1-ol/water partition coefficient

Row | Structure (SMILES) | Log P
1 | O=C1O[C@H]([C@@H](O)CO)C(O)=C1O[C@H]1O[C@H](CO)[C@@H](O)[C@H](O)[C@H]1O [Ascorbyl Glucoside] | −3.4
2 | NC(=O)c1cccnc1 [Niacinamide] | −0.37
3 | NC[C@H]1CC[C@H](C(=O)O)CC1 [Tranexamic Acid] | −1.6
4 | CC(O)C[C@H]1OC[C@@H](O)[C@H](O)[C@H]1O (stereo partly drawn) [Hydroxypropyl Tetrahydropyrantriol, C-beta-D-xylopyranoside-2-hydroxpropane] | −1.5
